Data reported in PubChem BioAssay (NCI).
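Growth conditions: 96-well plates. Treatment: test compound, 48 hours, 5 concentrations. Analysis: linear interpolation between bracketing concentrations; unreached endpoints set to highest concentration. TGI: total growth inhibition.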

Tests used:
Assay in all cases: NCI tumour cell line growth inhibition, 48 h
CCRF-CEM leukemia = tested on: CCRF-CEM leukemia
COLO 205 colon = tested on: COLO 205 colon
DU-145 prostate = tested on: DU-145 prostate
HCT-15 colon = tested on: HCT-15 colon
IGROV1 ovarian = tested on: IGROV1 ovarian
MDA-N = tested on: MDA-N
SF-539 CNS = tested on: SF-539 CNS
SK-MEL-5 melanoma = tested on: SK-MEL-5 melanoma
SK-OV-3 ovarian = tested on: SK-OV-3 ovarian
UACC-62 melanoma = tested on: UACC-62 melanoma

| SMILES | TGI (CCRF-CEM leukemia) [µM] | TGI (COLO 205 colon) [µM] | TGI (DU-145 prostate) [µM] | TGI (HCT-15 colon) [µM] | TGI (IGROV1 ovarian) [µM] | TGI (MDA-N) [µM] | TGI (SF-539 CNS) [µM] | TGI (SK-MEL-5 melanoma) [µM] | TGI (SK-OV-3 ovarian) [µM] | TGI (UACC-62 melanoma) [µM] |
| --- | --- | --- | --- | --- | --- | --- | --- | --- | --- | --- |
| Oc1c(C2=NNC(c3cccs3)C2)ccc2ccccc12 (stereo not given) | 37.4 | 37.7 | 61.7 | > 100 | 95.9 | 35.3 | 43.1 | 56.4 | > 100 | 30.3 |
| COC(=O)c1ccc2c(c1)CC1(C2)Cc2cc3c(c(C(=O)OC)c2C1)CCCC3 (stereo not given) | > 100 | > 100 | > 100 | > 100 | > 100 | > 100 | > 100 | 42 | > 100 | > 100 |
| CSCCC(NCc1c(O)ccc2ccc(=O)oc12)C(=O)O (stereo not given) | > 100 | > 100 | > 100 | > 100 | > 100 | > 100 | > 100 | > 100 | > 100 | > 100 |
| Cc1ccc(S(=O)(=O)NC(=O)NC(CO)C(=O)O)cc1 (stereo not given) | > 100 | > 100 | > 100 | > 100 | > 100 | > 100 | > 100 | > 100 | > 100 | > 100 |
